“And” between values parts separate entries of the source, which are not always exact repeats. Equal values may be shown once.
Test system: skin of female albino New Zealand White rabbits
Assay: Rabbit skin irritation
Method: Within 24 hours to 4 hours before test application, the backs of female albino New Zealand White rabbits were clipped free of hair, exposing 2 test and 2 control areas on each side of the spine with a size of approximately 15 cm×15 cm. The two test sites are located on the left cranial section and the right caudal section of the dorsal region. The two control sites are located on the left caudal and right cranial section of the dorsal region. FIG. 2 depicts the arrangement of test and control sites. The exposed skin is wiped with alcohol and dried. Rabbits of acceptable skin quality were selected and used for testing.
A 25×25 mm gauze patch saturated with 0.5 mL of 0.9% NaCl is used for the control and applied to the clipped control sites. The patches are secured using hypoallergenic, waterproof, surgical tape over the test and control sites. The animal's trunk is securely wrapped so as to maintain the position of the patches. Patches are left applied for a minimum of four hours.
After patch removal, the test and control sites were then scored for erythema and edema at 1, 24, 48 and 72 hours after patch removal. Only the 24, 48, and 72 hour observations were scored and used for calculations. If no response was expected, testing was conducted using three animals per test article. If irritation was anticipated, one animal was tested initially. If the first animal received a score of 2 or less for either erythema or edema, 2 additional rabbits were used to conclude the test.
This total was divided by the total number of observations. The same was done for the control sites. […] These scores for each animal were added and divided by the total number of animals to give the Primary Irritation Index. […] For any response, the Maximum Irritation Response, the time of onset of the response and the time of maximum response was recorded.
To positively validate the test, 10% sodium dodecyl sulfate (SDS), which is a known dermal irritant, in petroleum jelly was applied to a 2.5 cm×2.5 cm gauze patch. As a negative control, 0.5 mL of 0.9% NaCl was applied to a 2.5 cm×2.5 cm gauze patch. A Primary Irritation Index in the moderate to severe range is considered a positive result. The test system and methods utilized were the same as described above.

[1] = per rabbit, 24, 48 and 72 hour observations after patch removal, direct application, sulfate

SMILES: CCCCCCCCCCCCOS(=O)(=O)[O-].[Na+] [10% SDS, sodium dodecyl sulfate]
- Primary Irritation Index (3 animals): 6.4
- Total Average (sum over animals) (3 animals): 19.3
- ED (edema) score sum [1]: 19 and 21 and 14
- ER (erythema) score sum [1]: 21 and 23 and 18
- ER + ED = Total [1]: 40 and 44 and 32
